Assay results taken from patent publication EP0508725A1, “Novel process for the preparation of 8a-aza-8a-homoerythromycin cyclic iminoethers” (MERCK & CO. INC., priority 1991, dated 1992).

Tests used:
Experiment in all cases: MIC, liquid turbidimetric microtiter method in brain heart infusion broth
Assay type in all cases: cell-based
[1] = tested on: Staphylococcus epidermidis MB 5414
Description: (§1) The antibacterial activities of compound (VII) against a panel of aerobic Gram positive and negative bacteria is shown in the following Table. The assay employs a liquid turbidimetric microtiter method for the determination of the minimum inhibitory concentration (MIC) in brain heart infusion broth. […] The MIC is generally not an absolute value but rather a concentration ranged that falls within a two-fold dilution limit. Generally twelve two-fold dilutions of the test compound are employed with the initial concentration set at 128 mcg/ml.

[2] = tested on: Streptococcus pyogenes MB 2874
Description: as §1

[3] = tested on: Steptococcus viridans CL 2943
Description: as §1

[4] = tested on: Yersinia enterocoltica CL 1598
Description: as §1

[5] = tested on: Enterococcus faecium MB 5416
Description: as §1

[6] = tested on: Enterococcus faecalis MB 5407
Description: as §1

[7] = tested on: Streptococcus pneumoniae CL 2883
Description: as §1

[8] = tested on: Staphylococcus haemolyticus MB 5412
Description: as §1

Escherichia coli MB 4926 = tested on: Escherichia coli MB 4926
Description: as §1

[9] = tested on: Klebsiella pneumoniae MB 4005
Description: as §1

[10] = tested on: Streptococcus agalactiae CL 1343
Description: as §1

Escherichia coli MB 2884 = tested on: Escherichia coli MB 2884
Description: as §1

[11] = tested on: Streptococcus pyogenes MB 5406
Description: as §1

[12] = tested on: Staphylococcus aureus MB 2865
Description: as §1

[13] = tested on: Pseudomonas stutzeri MB 1231
Description: as §1

Structure (SMILES): CC[C@H]1OC(=O)[C@H](C)[C@@H](O[C@H]2C[C@@](C)(OC)[C@@H](O)[C@H](C)O2)[C@H](C)[C@@H](O[C@@H]2O[C@H](C)C[C@H](N(C)C)[C@H]2O)[C@](C)(O)C[C@@H](C)N=C2O[C@@]1(C)[C@H](O)[C@H]2C [Compound (VII), 9-Deoxo-12-deoxy-9,12-epoxy-8a,9-didehydro-8a-aza-8a-homoerythromycin A]
- MIC Values [1]: 32 mcg/m
- MIC Values [2]: 1 mcg/m
- MIC Values [3]: 16 mcg/m
- MIC Values [4]: 128 mcg/m
- MIC Values [5]: 8 mcg/m
- MIC Values [6]: 32 mcg/m
- MIC Values [7]: 0.5 mcg/m
- MIC Values [8]: 8 mcg/m
- MIC Values (Escherichia coli MB 4926): 8 mcg/m
- MIC Values [9]: >128 mcg/m
- MIC Values [10]: 1 mcg/m
- MIC Values (Escherichia coli MB 2884): 128 mcg/m
- MIC Values [11]: 128 mcg/m
- MIC Values [12]: 16 mcg/m
- MIC Values [13]: 0.5 mcg/m
